In patent US12084472B2 (Ardelyx, Inc., priority 2015, dated 2024):

These compounds were tested against T1, human TGR5 (Homo sapiens, UniProt Q8TDU6) (assay: Cell-based TGR5 assay (cAMP generation, HTRF)). Conditions: HEK293 cells stably transfected with human TGR5; cAMP by HTRF; 30 minutes at 37° C.; read-out: pEC50 Human TGR5 (converted).
T1 construct: expressed in transfected cells; host or cells: HEK293
T1 sequence (Q8TDU6 1-330): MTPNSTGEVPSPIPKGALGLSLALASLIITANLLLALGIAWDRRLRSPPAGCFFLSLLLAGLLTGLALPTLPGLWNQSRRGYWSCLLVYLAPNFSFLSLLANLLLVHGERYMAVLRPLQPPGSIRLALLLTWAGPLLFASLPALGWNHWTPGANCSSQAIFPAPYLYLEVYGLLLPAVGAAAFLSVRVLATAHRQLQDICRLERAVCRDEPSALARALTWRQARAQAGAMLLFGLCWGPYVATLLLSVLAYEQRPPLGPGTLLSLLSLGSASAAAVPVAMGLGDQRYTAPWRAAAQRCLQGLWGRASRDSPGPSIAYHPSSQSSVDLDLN
Outline: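 First, compounds in 3-fold serial dilution were placed in HBSS with 10 mM HEPES pH 7.4 and 0.5 mM IBMX. Next, human TGR5-expressing HEK293 cells were added and incubated 30 min at 37° C. Finally, cAMP was detected by HTRF and pEC50 derived by logistic fitting.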

Row | Structure (SMILES) | EC50 [µM]
1 | O=C(NC[C@H](O)[C@@H](O)[C@H](O)[C@H](O)CO)C12CCC(NS(=O)(=O)c3ccc(Cl)c(COC4(c5cnccc5-c5ccccc5OC5CC5)CC4)c3)(CC1)CC2 [Compound I-445, 4-[4-chloro-3-({1-[4-(2-cyclopropoxyphenyl)pyridin-3-yl]cyclopropoxy}methyl)benzenesulfonamido]-N-[(2S,3R,4R,5R)-2,3,4,5,6-pentahydroxyhexyl]bicyclo[2.2.2]octane-1-carboxamide] | 0.126 to 1
2 | [2H]C([2H])(NC(=O)N[C@@H](CO)[C@@H](O)[C@H](O)[C@H](O)CO)C([2H])([2H])C([2H])([2H])C([2H])([2H])N(C)S(=O)(=O)c1ccc(Cl)c(COC2(c3cnccc3-c3ccccc3OC3CC3)CC2)c1 [Compound I-735, 1-(4-[N-methyl[4-chloro-3-([1-[4-(2-cyclopropoxyphenyl)pyridin-3-yl]cyclopropoxy]methyl)benzene]sulfonamido](d8)butyl)-3-[(2S,3R,4S,5R)-1,3,4,5,6-pentahydroxyhexan-2-yl]urea] | < 0.1
3 | O=C([C@@H](O)[C@@H](O)[C@H](O)[C@@H](O)CO)N(CCCSc1ccc(Cl)c(CNC2(c3cnccc3-c3ccccc3OC3CC3)CC2)c1)C1CCS(=O)(=O)CC1 [Compound I-552, (2S,3S,4R,5S)-N-[3-({4-chloro-3-[({1-[4-(2-cyclopropoxyphenyl)pyridin-3-yl]cyclopropyl}amino)methyl]phenyl}sulfanyl)propyl]-N-(1,1-dioxo-1λ^6-thian-4-yl)-2,3,4,5,6-pentahydroxyhexanamide] | 1.26 to 10
4 | CC[C@@H](O)CN(C[C@H](O)[C@@H](O)[C@H](O)[C@H](O)CO)C(=O)CCCCc1cc(Cl)c(COC2(c3cnccc3-c3ccccc3OC3CC3)CC2)cc1Cl [Compound I-123, 5-[2,5-dichloro-4-({1-[4-(2-cyclopropoxyphenyl)pyridin-3-yl]cyclopropoxy}methyl)phenyl]-N-[(2R)-2-hydroxybutyl]-N-[(2S,3R,4R,5R)-2,3,4,5,6-pentahydroxyhexyl]pentanamide] | < 0.1
5 | O=C(NC[C@H](O)[C@@H](O)[C@H](O)[C@H](O)CO)N(CCCCc1cc(Cl)c(COC2(c3cnccc3-c3ccccc3OC3CC3)CC2)cc1Cl)CCOCCO [Compound I-86, 1-(4-(2,5-dichloro-4-((1-(4-(2-cyclopropoxyphenyl)pyridin-3-yl)cyclopropoxy)methyl)phenyl)butyl)-1-(2-(2-hydroxyethoxy)ethyl)-3-((2S,3R,4R,5R)-2,3,4,5,6-pentahydroxyhexyl)urea] | < 0.1
6 | O=C(CN1CCN(C(=O)CCCCc2cc(Cl)c(COC3(c4cnccc4-c4ccccc4OC4CC4)CC3)cc2Cl)CC1)NC[C@H](O)[C@@H](O)[C@H](O)[C@H](O)CO [Compound I-98, 2-(4-{5-[2,5-dichloro-4-({1-[4-(2-cyclopropoxyphenyl)pyridin-3-yl]cyclopropoxy}methyl)phenyl]pentanoyl}piperazin-1-yl)-N-[(2S,3R,4R,5R)-2,3,4,5,6-pentahydroxyhexyl]acetamide] | < 0.1
7 | CN(CCCSc1ccc(Cl)c(COC2(c3cnccc3-c3ccccc3OC3CC3)CC2)c1)C(=O)[C@@H](O)[C@@H](O)[C@H](O)[C@@H](O)CO [Compound I-508, (2S,3S,4R,5S)-N-(3-{[4-chloro-3-({1-[4-(2-cyclopropoxyphenyl)pyridin-3-yl]cyclopropoxy}methyl)phenyl]sulfanyl}propyl)-2,3,4,5,6-pentahydroxy-N-methylhexanamide] | < 0.1
8 | Cc1cc(COC2(c3cnccc3-c3ccccc3OC3CC3)CC2)c(Cl)cc1CCCCNC(=O)[C@@H](O)[C@@H](O)[C@H](O)[C@@H](O)CN1CCOCC1 (stereo in doubt) [Compound I-176, (2S,3S,4R,5S)-N-{4-[5-chloro-4-({1-[4-(2-cyclopropoxyphenyl)pyridin-3-yl]cyclopropoxy}methyl)-2-methylphenyl]butyl}-2,3,4,5-tetrahydroxy-6-(morpholin-4-yl)hexanamide] | < 0.1
9 | COc1cc(C)ccc1-c1ccncc1C1(OCc2cc(Cl)ccc2Cl)CC1 [Compound I-774, 3-(1-((2,5-dichlorobenzyl)oxy)cyclopropyl)-4-(2-methoxy-4-methylphenyl)pyridine] | 0.126 to 1
10 | Cc1ccccc1-c1ccncc1C1(OCc2cc(Cl)ccc2Cl)CC1 [Compound I-773, 3-(1-((2,5-dichlorobenzyl)oxy)cyclopropyl)-4-(o-tolyl)pyridine] | 0.126 to 1
11 | COc1ccccc1-c1ccncc1C1(OCc2cc(Cl)ccc2Cl)CC1 [Compound I-45, 3-[1-[(2,5-dichlorophenyl)methoxy]cyclopropyl]-4-(2-methoxyphenyl)pyridine] | < 0.1
12 | O=C(O)CCCCc1cc(Cl)c(CNC2(c3cnccc3-c3ccccc3OC3CC3)CC2)cc1Cl [Compound I-61, 5-[2,5-dichloro-4-[([1-[4-(2-cyclopropoxyphenyl)pyridin-3-yl]cyclopropyl]amino)methyl]phenyl]pentanoic acid] | 0.126 to 1
13 | CC(=O)N(CCCSc1ccc(Cl)c(COC2(c3cnccc3-c3ccccc3OC3CC3)CC2)c1)C[C@H](O)[C@@H](O)[C@H](O)[C@H](O)CO [Compound I-500, N-(3-{[4-chloro-3-({1-[4-(2-cyclopropoxyphenyl)pyridin-3-yl]cyclopropoxy}methyl)phenyl]sulfanyl}propyl)-N-[(2S,3R,4R,5R)-2,3,4,5,6-pentahydroxyhexyl]acetamide] | < 0.1
14 | CCNC(=O)CCN(C[C@H](O)[C@@H](O)[C@H](O)[C@H](O)CO)C(=O)CCCC(C)c1ccc(C)c(CNC2(c3cnccc3-c3ccccc3OC3CC3)CC2)c1 (stereo partly drawn) [Compound I-365, 5-{3-[({1-[4-(2-cyclopropoxyphenyl)pyridin-3-yl]cyclopropyl}amino)methyl]-4-methylphenyl}-N-[2-(ethylcarbamoyl)ethyl]-N-[(2S,3R,4R,5R)-2,3,4,5,6-pentahydroxyhexyl]hexanamide] | 0.126 to 1
15 | CC(C)c1ccc(SCCCC(=O)N(C)C[C@H](O)[C@@H](O)[C@H](O)[C@H](O)CO)cc1COC1(c2cnccc2-c2ccccc2OC2CC2)CC1 [Compound I-620, 4-{[3-({1-[4-(2-cyclopropoxyphenyl)pyridin-3-yl]cyclopropoxy}methyl)-4-(propan-2-yl)phenyl]sulfanyl}-N-methyl-N-[(2S,3R,4R,5R)-2,3,4,5,6-pentahydroxyhexyl]butanamide] | 1.26 to 10
16 | C=C(CCCNC(=O)[C@@H](O)[C@@H](O)[C@H](O)[C@@H](O)CO)c1ccc(Cl)c(CNC2(c3cnccc3-c3ccccc3OC3CC3)CC2)c1 [Compound I-381, (2S,3S,4R,5S)-N-(4-[4-chloro-3-[([1-[4-(2-cyclopropoxyphenyl)pyridin-3-yl]cyclopropyl]amino)methyl]phenyl]pent-4-en-1-yl)-2,3,4,5,6-pentahydroxyhexanamide] | < 0.1
17 | CS(=O)(=O)CCN(CCCCSc1ccc(Cl)c(CNC2(c3cnccc3-c3ccccc3OC3CC3)CC2)c1)C(=O)[C@@H](O)[C@@H](O)[C@H](O)[C@@H](O)CO [Compound I-584, (2S,3S,4R,5S)-N-[4-({4-chloro-3-[({-[4-(2-cyclopropoxyphenyl)pyridin-3-yl]cyclopropyl}amino)methyl]phenyl}sulfanyl)butyl]-2,3,4,5,6-pentahydroxy-N-(2-methanesulfonylethyl) hexanamide] | < 0.1
